Measured values as given in US20040010038A1, “Propargylamino indan derivatives and propargylamino tetralin derivatives as brain-selective MAO inhibitors” (priority 2002, published 2004).
Where a name gives a salt, the structure may show the parent alone. Read-outs that look alike come from different tables or passages of the source.

Experiments:
[1] = biological target: T1, MAO-A (Rattus norvegicus, UniProt P21396); test: Inhibition of MAO activity in vitro (5-HT as substrate); assay type: biochemical
T1 construct: The MAO enzyme source was a homogenate of rat brain in 0.3 M sucrose 1:20 w/v; from tissue; host or cells: rat brain homogenate
T1 sequence (P21396 1-526): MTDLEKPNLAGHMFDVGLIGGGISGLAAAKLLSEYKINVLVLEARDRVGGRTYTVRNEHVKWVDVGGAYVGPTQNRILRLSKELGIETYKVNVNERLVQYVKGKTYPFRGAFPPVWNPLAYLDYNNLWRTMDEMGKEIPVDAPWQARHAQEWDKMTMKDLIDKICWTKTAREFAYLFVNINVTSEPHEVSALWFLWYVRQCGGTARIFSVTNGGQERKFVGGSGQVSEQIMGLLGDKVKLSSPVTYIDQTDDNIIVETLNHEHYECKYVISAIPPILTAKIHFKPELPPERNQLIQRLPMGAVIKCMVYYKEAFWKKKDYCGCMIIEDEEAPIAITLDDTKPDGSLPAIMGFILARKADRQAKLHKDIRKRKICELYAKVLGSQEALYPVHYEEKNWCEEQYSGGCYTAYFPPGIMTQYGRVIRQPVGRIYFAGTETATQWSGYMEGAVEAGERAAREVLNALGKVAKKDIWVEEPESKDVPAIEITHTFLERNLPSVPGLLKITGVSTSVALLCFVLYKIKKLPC
Description: (§1) Inhibition of MAO Activity In Vitro Experimental Protocol
(§2) The reaction was then stopped by addition of citric acid. Radioactivity indicates the production of 5-HT and PEA metabolites formed as a result of MAO activity.
(§3) A mixture of toluene: ethyl acetate (1:1) was added to the reaction and mixed for 10 minutes, followed by 5 minutes of centrifugation at 1760 g. The upper phase was taken for radioactive determination by liquid scintillation spectrometry.

[2] = biological target: T2, MAO-B (Rattus norvegicus, UniProt P19643); test: Inhibition of MAO activity in vitro (PEA as substrate); assay type: biochemical
T2 construct: The MAO enzyme source was a homogenate of rat brain in 0.3 M sucrose 1:20 w/v; from tissue; host or cells: rat brain homogenate
T2 sequence (P19643 1-520): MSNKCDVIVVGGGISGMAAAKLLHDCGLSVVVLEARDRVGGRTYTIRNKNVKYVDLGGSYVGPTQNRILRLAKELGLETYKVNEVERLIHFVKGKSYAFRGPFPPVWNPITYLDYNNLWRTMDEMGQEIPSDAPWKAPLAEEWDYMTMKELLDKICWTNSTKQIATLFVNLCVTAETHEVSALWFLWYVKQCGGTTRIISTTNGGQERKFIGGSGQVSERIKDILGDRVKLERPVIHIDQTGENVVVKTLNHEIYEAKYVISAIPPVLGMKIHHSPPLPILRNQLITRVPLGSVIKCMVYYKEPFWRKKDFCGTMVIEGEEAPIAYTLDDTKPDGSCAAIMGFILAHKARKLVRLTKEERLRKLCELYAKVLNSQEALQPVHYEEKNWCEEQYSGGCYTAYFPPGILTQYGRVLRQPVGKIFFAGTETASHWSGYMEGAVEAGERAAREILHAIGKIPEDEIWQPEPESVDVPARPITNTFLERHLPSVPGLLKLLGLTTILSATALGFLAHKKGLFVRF
Description: as §1, §2, §3

[3] = biological target: T1, MAO-A; test: Inhibition of MAO activity in vivo, MAO-A
Description: (§4) Inhibition of MAO Activity In Vivo: Chronic Treatment Experimental Protocol
(§5) Rats were treated with the test compounds (Table 5) at several dose levels by oral administration, one dose daily for 7-21 days, and decapitated 2 hours after the last dose. The activities of MAO-A and MAO-B were determined in the brain, liver and intestine as described in the previous example. Inhibition of MAO activity was calculated by dividing MAO activity in the treated rats by MAO activity in the control rats (saline treated, MAO activity in these rats was taken as 100%).
as §3

[4] = biological target: T2, MAO-B; test: Inhibition of MAO activity in vivo, MAO-B
Description: as §4, §5, §3

[5] = biological target: T1, MAO-A; test: Inhibition of MAO activity in vivo, MAO-A; conditions: tissue not stated; for inhibition at 10 µmol/kg: 10 μmol/kg (3.2-4 mg/kg), acute
[6] = biological target: T2, MAO-B; test: Inhibition of MAO activity in vivo, MAO-B; conditions: tissue not stated; for inhibition at 10 µmol/kg: 10 μmol/kg (3.2-4 mg/kg), acute
[7] = rat brain homogenate, 60 min pre-incubation at 37° C., 14C 5-HT substrate, read-out: In vitro IC50 A
[8] = rat brain homogenate, 60 min pre-incubation at 37° C., 14C PEA substrate, read-out: In vitro IC50 B
[9] = oral, 1 mg/kg (2.9 μmol/kg), 7 days, tissue not stated
[10] = oral, 15 mg/kg (44 μmol/kg), 7 days, tissue not stated
[11] = oral, 150 μmol/kg, 7 days, tissue not stated

Molecule	IC50 [1, 7]	IC50 [2, 8]	other results
C#CCN(C)C1CCc2c(OC(=O)c3c(OC)cccc3OC)cccc21 (racemic) [Cmpd 121]	0.34 µM	3 µM	
C#CCN(C)C1CCc2ccc(OC(=O)c3ccccc3)cc2C1 (racemic) [Cmpd 124, 7-O-benzoyl-2-(methyl-prop-2-ynylamino)-tetralin Hcl]	1.2 µM	1.2 µM	
C#CCN(C)[C@@H]1CCc2ccc(O)cc21 [Cmpd 114, (R)3-(methyl-prop-2-ynylamino)-5-indanol]	0.01 µM	0.03 µM	
C#CCN(C)[C@H]1CCc2ccc(O)cc21 [Cmpd 113, (S)3-(methyl-prop-2-ynylamino)-5-indanol]	12 µM	23 µM	
C#CCN(C)C1CCc2cc(O)c(O)cc2C1 (centres unmarked) [Cmpd 139, 6-(methyl-prop-2-ynylamino)-2,3-tetralindiol]	4.5 µM	41 µM	
C#CCN(C)[C@@H]1CCc2ccc(OC(=O)N(C)CC)cc21 [Cmpd 140]		12 µM	IC50 [1]: 4.3 µM; inhibition at 2 µmol/kg ([3]; po, read-out: % inhibition A): 6%; inhibition at 10 µmol/kg ([3]; po, read-out: % inhibition A): 51%; inhibition at 50 µmol/kg ([3]; po, read-out: % inhibition A): 65%; inhibition at 2 µmol/kg ([4]; po, read-out: % inhibition B): 10%; inhibition at 10 µmol/kg ([4]; po, read-out: % inhibition B): 30%; inhibition at 50 µmol/kg ([4]; po, read-out: % inhibition B): 73%
C#CCN(C)[C@@H]1CCc2ccc(OC(=O)c3ccccc3)cc21 [Cmpd 128]	0.2 µM	1 µM	inhibition at 1 mg/kg [3, 9]: 87%; inhibition at 5 mg/kg ([3]; oral, 5 mg/kg (15 μmol/kg), 7 days, tissue not stated, read-out: % inhibition A): 95%; inhibition at 15 mg/kg [3, 10]: 98%; inhibition at 1 mg/kg [4, 9]: 77%; inhibition at 5 mg/kg ([4]; oral, 5 mg/kg (15 μmol/kg), 7 days, tissue not stated, read-out: % inhibition B): 91%; inhibition at 15 mg/kg [4, 10]: 91%
C#CCN(C)[C@H]1CCc2ccc(OC(=O)C(C)(C)C)cc21 [Cmpd 129]	2.5 µM	17 µM	
C#CCN(C)C1CCc2c(OC(=O)c3ccccc3)cccc21 (racemic) [Cmpd 120]	0.13 µM	0.91 µM	
C#CCN(C)[C@@H]1CCc2ccc(OC(=O)c3c(OC)cccc3OC)cc21 [Cmpd 134]	1.2 µM	5.9 µM	inhibition at 10 µmol/kg [5]: 9%; inhibition at 10 µmol/kg [6]: 0%
C#CCN(C)[C@@H]1CCc2ccc(OC(=O)CCCC)cc21 [Cmpd 126]	0.058 µM	0.13 µM	
C#CCN[C@@H]1CCc2ccc(OC(=O)N(C)CC)cc21 [Cmpd 146]			IC50 ([1]; read-out: In vitro IC50 A): 300 µM; inhibition at 100 µmol/kg ([5]; oral, 100 μmol/kg, 5 days): 56%; inhibition at 50 µmol/kg ([3]; oral, 50 μmol/kg, 7 days, tissue not stated, read-out: % inhibition A): 46%; inhibition at 150 µmol/kg [3, 11]: 74%; inhibition at 100 µmol/kg ([6]; oral, 100 μmol/kg, 5 days): 74%; inhibition at 50 µmol/kg ([4]; oral, 50 μmol/kg, 7 days, tissue not stated, read-out: % inhibition B): 52%; inhibition at 150 µmol/kg [4, 11]: 87%
C#CCN(C)C1CCc2cccc(O)c21 (racemic) [Cmpd 118, 3-(methyl-prop-2-ynylamino)-4-indanol]	0.07 µM		IC50 [2]: 0.05 µM
C#CCN(C)[C@H]1CCc2ccc(OC(=O)c3ccccc3)cc21 [Cmpd 127, Benzoic Acid (S)-3-(Methyl-Prop-2-Ynyl-Amino)-Indan-5-Yl Ester HCl]	3.8 µM	5.6 µM	
C#CCN(C)C1CCc2c(O)cccc21 (racemic) [Cmpd 117, 1-(methyl-prop-2-ynylamino)-4-indanol]	0.0083 µM	0.07 µM	
C#CCN(C)C1CCc2cc(OC(=O)c3ccccc3)c(OC(=O)c3ccccc3)cc21 (racemic) [Cmpd 137, 5,6-Di-O-Benzoyl-1-(Methyl-Prop-2-Ynyl-Amino)-Indan HCl]	1.4 µM	21 µM	

Molecule	IC50 [1, 7]	IC50 [2, 8]	other results
C#CCN(C)C1CCc2c(OC(=O)N(C)CC)cccc21 (centres unmarked) [Cmpd 142]	0.027 µM	4 µM	
C#CCN(C)C1CCc2ccc(OC(=O)N(C)CCC)cc21 (centres unmarked) [Cmpd 143]	5.6 µM	9.2 µM	
C#CCNC1CCCc2ccc(OC(=O)N(C)CC)cc21 (centres unmarked) [Cmpd 148]	500 µM	100 µM	
C#CCN(C)C1CCc2cccc(OC(=O)N(C)CCC)c21 (centres unmarked) [Cmpd 144]	71 µM	63 µM	
(S)-3-prop-2-ynylamino-5-indanol mesylate [Cmpd 100]	500 µM	300 µM	
C#CCN(C)[C@@H]1CCc2ccc(OC(C)=O)cc21 [Cmpd 116]	0.035 µM	0.0056 µM	
C#CCN(C)[C@@H]1CCc2ccc(OC(=O)c3ccccc3C)cc21 [Cmpd 132]	1.1 µM	9.9 µM	inhibition at 10 µmol/kg [5]: 41%; inhibition at 10 µmol/kg [6]: 37%
C#CCN[C@@H]1CCc2ccc(OC(=O)N(C)CC)cc21 [Cmpd 147]	550 µM	> 1000 µM	
C#CCN(C)C1CCc2ccc(O)cc21 (racemic) [Cmpd 112, 3-(Methyl-Prop-2-Ynyl Amino)-5-Indanol]	0.03 µM	0.01 µM	
C#CCNC1CCc2ccc(OC(=O)N(C)CC)cc2C1 (centres unmarked) [Cmpd 149]	2 µM	100 µM	
C#CCN[C@@H]1CCc2ccc(O)cc21 [Cmpd 101, (R)-3-prop-2-ynylamino-5-indanol mesylate]			inhibition at 5 mg/kg ([3]; po, read-out: % inhibition A): 35%; inhibition at 25 mg/kg ([3]; po, read-out: % inhibition A): 57%; inhibition at 5 mg/kg ([4]; po, read-out: % inhibition B): 47%; inhibition at 25 mg/kg ([4]; po, read-out: % inhibition B): 65%
C#CCN(C)C1CCc2c(OC(C)=O)cccc21 (racemic) [Cmpd 119]	0.018 µM	0.11 µM	
C#CCN(C)C1CCc2cc(OC(=O)c3ccccc3)c(OC(=O)c3ccccc3)cc2C1 (racemic) [Cmpd 138, 6,7-di-O-benzoyl-2-(methyl-prop-2-ynylamino)-tetralin HCl]	1.2 µM	0.4 µM	
C#CCN(C)[C@@H]1CCc2ccc(OC(=O)C(C)(C)C)cc21 [Cmpd 130]	0.56 µM	2.5 µM	inhibition at 10 µmol/kg [5]: 24%; inhibition at 10 µmol/kg [6]: 22%
C#CCN(C)C1CCc2cccc(OC(=O)N(C)CC)c21 (centres unmarked) [Cmpd 141]	65 µM	100 µM	
C#CCN(C)C1CCc2ccc(O)cc2C1 (racemic) [Cmpd 123, 7-(methyl-prop-2-ynylamino)-2-tetralinol]	0.41 µM	0.48 µM	
